Measurements reported in patent US20160355782A1, “METHOD FOR ENHANCING DIFFERENTIATION OF DOPAMINERGIC NEURONS” (Buddhist Tzu Chi Medical Foundation, priority 2015, published 2016).

Key:
Assay type in all cases: cell-based, rat
VM precursor cultures [1] = test: DA uptake assay in VM precursor cultures; settings: 1 μM UCN, 4 days
Experimental: For DA uptake assay, cells were washed twice with warm Krebs-Ringer buffer (16 mM sodium phosphate, 119 mM NaCl, 4.7 mM KCl, 1.8 mM CaCl2, 1.2 mM MgSO4, 1.3 mM EDTA and 5.6 mM glucose, pH 7.4), and then incubated with 1 μM [^3H]-dopamine(DA)(60 Ci/mmol, PerkinElmer) in Krebs-Ringer buffer at 37° C. for 20 min. After washing with ice-cold Krebs-Ringer buffer, cells were collected in 1 N NaOH and radioactivity was counted with a liquid scintillation counter. Non-specific uptake was determined in parallel wells that received both the tritiated tracer and 10 μM mazindol. The specific [^3H] DA were calculated by subtracting the amount of radioactivity obtained in the presence of mazindol from that obtained in the absence of mazindol.

[2] = test system: cortical neural precursor cells (NPCs); test: TH+ cell differentiation of lentivirus-transduced (Nurr1 or GFP) cortical NPCs
Experimental: Cultures of neural precursor cells (NPCs) derived from cortices at E13.5 were performed as the methods known by a person skilled in the art, for example, as the protocol described by Huang et al. (2012) and carried out with some modifications. Briefly, dissected cortical tissues were mechanically triturated and plated at 5×10^4 cells on coverslips (12-mm diameter) pre-coated with 20 μg/mL fibronectin (Invitrogen)/15 μg/mL poly-L-ornithine (Sigma-Aldrich) in 24 well plates. Cells were cultured in a serum-free NPCs culture medium containing DMEMF12, 2% B27 supplement (Invitrogen), 0.6% glucose, 20 ng/mL bFGF (Sigma-Aldrich), 20 ng/mL EGF (Invitrogen), 2 μg/mL heparin (Sigma-Aldrich), 100 U/mL penicillin, and 100 μg/mL streptomycin.
(§1) TH promoter assay or lenti-virial transductions were carried out at 60%˜70% cell confluences (usually for 3 days) as described below. Cell differentiation was induced for 3 to 5 days by switching to mitogens-free DMEM/F12/N2 medium in the presence of 0.5 μM UCN. Differentiation medium was changed every other day.
(§2) For lenti-viral transduction, E13 cortical NPCs were incubated with lenti-viruses (25 multiplicity of infection) expressing Nurr1 or GFP containing poly-brene (hexadimethrine bromide, 1 μg/mL, Sigma-Aldrich) for 24 hours. After 1 day of further cell expansion in the presence of the mitogens, cells were induced to differentiate.
For immuno-cytochemistry, cells were fixed with 4% paraformaldehyde followed by blocking with PBS containing 0.4% Triton X-100, 3% normal goat serum and 2% bovine serum albumin (BSA) for 1 h at room temperature. After blocking, cells were incubated overnight at room temperature with primary antibodies. Primary antibodies were rabbit anti-UCN (1:200), mouse anti-TH (1:2000) (both from Sigma-Aldrich), goat anti-CRHR1 (1:100), rabbit anti-CRHR2 (1:250), rat anti-dopamine transporter (DAT, 1:200), chicken anti-MAP2 (1:5000) (all from Abcam, Cambridge, Mass.), rabbit anti-Nurr1 (1:100, Santa Cruz Biotechnology), mouse anti-Nurr1 (1:100, R&D Systems, Minneapolis, Minn.), rabbit anti-TH (1:1000), mouse anti-NeuN (1:200) (both from Chemicon, Temecula, Calif.), rabbit anti-acetyl-histone H3 (1:1000, Upstate Biotechnology, Lake Placid, N.Y.), rabbit anti-Foxa2 (1:500, Cell Signaling Technology), and rabbit anti-Pitx3 (1:100, Invitrogen).
For detection of dopaminergic neurons, the bound anti-TH antibody was visualized by incubation with an appropriate biotinylated secondary antibody followed by the Vectastain avidin-biotin-peroxidase (ABC) reagents (Vector Laboratories, Burlingame, Calif.) and color development with 3,3′-diaminobenzidine. The number of TH-positive neurons were counted in the entire surface area of a culture well or coverslip. For fluorescent double-labeling experiments, cells were incubated for 1 h at room temperature with rhodamine-conjugated donkey anti-mouse IgG (1:250), FITC-conjugated goat anti-rabbit IgG (1:250) or FITC-conjugated donkey anti-goat IgG (1:200) secondary antibodies (all from Jackson Immuno Research, West Grove, Pa.). Samples were counter-stained with Hoechst 33342 (5 μg/mL, Sigma-Aldrich) or DAPI (1 μg/mL), and mounted with 50% glycerol in PBS. Microscopic observations were done with a Zeiss Axiovert 200 M fluorescent microscope or a Zeiss LSM 510 META confocal imaging system (Carl Zeiss, Oberkochen, Germany). Immuno-reactive or Hoechst 33342-stained cells were counted in at least 10 random areas of each culture coverslip at a magnification of 100×.

[3] = test system: Nurr1-transduced cortical NPCs; test: Real-time RT-PCR of DA phenotype genes in Nurr1-transduced cortical NPCs; settings: 0.5 μM UCN, 3 days
Experimental: as §1, §2
Total RNA was extracted from VM tissues or cultured VM precursors with TRIzol® reagent (Invitrogen). One-step real-time RT-PCR analysis was performed to determine the expression of genes (Power SYBR® Green RNA-to-CT™ 1-step kit, Applied Biosystems, Foster City, Calif.). Threshold cycle (CO value for each test gene was normalized to the Ct value for the β-actin control from the same RNA preparations. The ratio of transcription of each gene was calculated as 2^−(ΔCt), where ΔCt is the difference Cr (test gene)−Ct (β-actin). The primers used herein are listed in Table 1.

[4] = test system: TH promoter in Nurr1-transfected cortical NPCs; test: TH promoter assay (pAAV-Nurr1 and pTH6.0-GL3) in cortical NPCs; settings: 24 hours
Text: The luciferase reporter vector pTH6.0-GL3 constructed by engineering the 6.0 kb upstream sequences of the rat TH (TH6.0) gene into pGL3 was kindly provided by Dr. Kwang-Soo Kim (Harvard Medical School, Belmont, Mass.). Vector expressing Nurr1 (mouse) was constructed by inserting the respective cDNA into pAAV-MCS vector (pAAV-Nurr1), in which the cloned gene is designed to be expressed under the control of the cytomegalovirus (CMV) immediate-early promoter. pTH6.0-GL3 alone or combined with pAAV-Nurr1 were transfected into a human neuro-blastoma SH-SY5Y cell line or cortical NPCs, respectively, using Lipofectamine 2000 (Invitrogen) according to the protocol of the manufacturer. For determine the effect of MeCP2-CoREST-HDAC1 repressor complex on TH promoter activity, the SH-SY5Y cells were double transfected with pTH6.0-GL3 and pCMV6-Entry-Mecp2 (Flag-tagged MeCP2)/or pCMV6-Entry-Rcor1 (Flag-tagged CoREST) (both from OriGene Technologies, Rockville, Md.)/or pK7-HDAC1-GFP (Addgene). […] Luciferase activity of cell lysates was determined luminometrically by the luciferase assay system (Promega, Madison, Wis.) as specified by the manufacturer. Luciferase activity was normalized to the protein content of the extracts. Relative luciferase activity was determined to reflect promoter activity of TH, expressed as the fold increase relative to the activity of control or untreated mock control.

VM precursor cultures [5] = test: Real-time RT-PCR analysis of VM precursor cultures; settings: 1.25 mM SB, 3 days

| Compound | DAT-mediated specific DA uptake (VM precursor cultures [1]) | conversion of Nurr1+ cortical NPCs into DA neurons ([2]; 0.5 μM UCN, 3 days) | TH+ cells expressing the mature DA neuron-specific marker DAT ([2]; Nurr1-transduced NPCs, 0.5 μM UCN, 4 days) | TH+ cell numbers ([2]; cortical NPCs transduced with GFP, 0.5 μM UCN, 3 days) | TH+ cell numbers ([2]; cortical NPCs transduced with Nurr1, 0.5 μM UCN, 3 days) | DAT gene expression [3] | TH gene expression [3] | VMAT2 gene expression [3] | TH promoter activity (relative luciferase activity) ([4]; 1 μM UCN) | TH+ cell numbers ([2]; Nurr1-transduced cortical NPCs, SB, 3 days) | TH promoter activity ([4]; 0.5 mM SB) | TH mRNA expression (VM precursor cultures [5]) |
| --- | --- | --- | --- | --- | --- | --- | --- | --- | --- | --- | --- | --- |
| Urocortin [UCN] | significantly enhanced | increased the conversion | almost all of TH^+ cells | do not change | increase in TH^+ cell numbers | increased gene expression | increased gene expression | increased gene expression | activation of the TH promoter | – | – | – |
| CCCC(=O)[O-].[Na+] [SB, sodium butyrate, reference compound] | – | – | – | – | – | – | – | – | – | increase in TH^+ cell numbers | increase TH promoter activity | markedly upregulated |
